Molecular target: BRG1 (Homo sapiens, UniProt P51532)
Assay: biochemical
Format: binding
Conditions: BRG1 HTRF IC50 (µM)
Text: IC50 measurements for inhibitors using BRG1 TR-FRET Binding Assay

Sequence of BRG1 (P51532 1448-1575): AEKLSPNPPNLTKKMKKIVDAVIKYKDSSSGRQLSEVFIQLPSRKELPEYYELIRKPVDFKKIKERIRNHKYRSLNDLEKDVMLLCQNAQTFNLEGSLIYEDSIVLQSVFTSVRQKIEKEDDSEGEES

Structure (SMILES) | IC50
CC(C)(O)C(=O)N1CCC(c2cc(-c3ccccc3O)nnc2N)CC1 [Example 229, 1-(4-(3-amino-6-(2-hydroxyphenyl)pyridazin-4-yl)piperidin-1-yl)-2-hydroxy-2-methylpropan-1-one] | 0.0437 µM
CN(C)CC1(O)CCN(c2cc(-c3ccccc3O)nnc2N)CC1 [Example 31, 1-(3-amino-6-(2-hydroxyphenyl)pyridazin-4-yl)-4-((dimethylamino)methyl) piperidin-4-ol] | 0.0208 µM
Nc1nnc(-c2ccccc2O)cc1N1CCc2[nH]ncc2C1 [Example 52, 2-(6-amino-5-(1,4,6,7-tetrahydro-5H-pyrazolo[4,3-c]pyridin-5-yl)pyridazin-3-yl)phenol] | 0.128 µM
Cn1nccc1-c1cc(-c2ccccc2O)nnc1N [Example 193, 2-(6-amino-5-(1-methyl-1H-pyrazol-5-yl)pyridazin-3-yl)phenol] | 1.08 µM
Cn1cc(N2CCN(c3cc(-c4ccccc4O)nnc3N)CC2)cn1 [Example 68, 2-(6-amino-5-(4-(1-methyl-1H-pyrazol-4-yl)piperazin-1-yl)pyridazin-3-yl)phenol] | 0.0367 µM
Nc1ccc(-c2ccccc2O)nn1 [Example 203, 2-(6-aminopyridazin-3-yl)phenol] | 0.335 µM
C[C@@H](C1CCN(c2cc(-c3ccccc3O)nnc2N)CC1)N(C)C [Example 60, (S)-2-(6-amino-5-(4-(1-(dimethylamino)ethyl)piperidin-1-yl)pyridazin-3-yl)phenol] | 0.0247 µM
Nc1nnc(-c2ccccc2O)cc1N1CCN(Cc2n[nH]c3ccccc23)CC1 [Example 102, 2-[6-amino-5-[4-(1H-indazol-3-ylmethyl)piperazin-1-yl]pyridazin-3-yl]phenol] | 0.0259 µM
Nc1nnc(-c2ccccc2O)cc1OC1CCCN(c2ccccc2)C1 (centres unmarked) [Example 183, 2-(6-amino-5-((1-phenylpiperidin-3-yl)oxy)pyridazin-3-yl)phenol] | 0.0172 µM
Nc1nnc(-c2ccc(F)cc2O)cc1-c1ccccc1 [Example 231, 2-(6-amino-5-phenylpyridazin-3-yl)-5-fluorophenol] | 0.995 µM
Cc1ccc(S(=O)(=O)N2CCC(c3cc(-c4ccccc4O)nnc3N)CC2)cc1 [Example 219, 2-(6-amino-5-(1-tosylpiperidin-4-yl)pyridazin-3-yl)phenol] | 0.36 µM
Cn1cc(N2C3CCC2CN(c2cc(-c4ccccc4O)nnc2N)C3)cn1 [Example 48, 2-(6-amino-5-(8-(1-methyl-1H-pyrazol-4-yl)-3,8-diazabicyclo[3.2.1]octan-3-yl)pyridazin-3-yl)phenol] | 0.0309 µM
CNC(=O)CN1C2CCC1CN(c1cc(-c3ccccc3O)nnc1N)C2 [Example 79, 2-(3-(3-amino-6-(2-hydroxyphenyl)pyridazin-4-yl)-3,8-diazabicyclo[3.2.1]octan-8-yl)-N-methylacetamide] | 0.139 µM
Nc1nnc(-c2ccccc2O)cc1N1CCCC(O)(c2ccccc2)C1 (centres unmarked) [Example 59, 1-(3-amino-6-(2-hydroxyphenyl)pyridazin-4-yl)-3-phenylpiperidin-3-ol] | 0.0158 µM
NC(=O)C1CCN(c2cc(-c3ccccc3O)nnc2N)CC1 [Example 73, 1-(3-amino-6-(2-hydroxyphenyl)pyridazin-4-yl)piperidine-4-carboxamide] | 0.0824 µM
CC(C)n1cc(CN2CCN(c3cc(-c4ccccc4O)nnc3N)CC2)cn1 [Example 94, 2-[6-amino-5-[4-[(1-isopropylpyrazol-4-yl)methyl]piperazin-1-yl]pyridazin-3-yl]phenol] | 0.122 µM

Structure (SMILES) | IC50
Nc1nnc(-c2ccccc2O)cc1N1CCC2(CC1)CNC(=O)C2 [Example 29, 8-(3-amino-6-(2-hydroxyphenyl)pyridazin-4-yl)-2,8-diazaspiro[4.5]decan-3-one] | 0.0566 µM
Cc1cc(CC(=O)N2CCN(c3cc(-c4ccccc4O)nnc3N)CC2C)on1 (centres unmarked) [Example 136, 1-(4-(3-amino-6-(2-hydroxyphenyl)pyridazin-4-yl)-2-methylpiperazin-1-yl)-2-(3-methylisoxazol-5-yl)ethan-1-one] | 0.0444 µM
CN(C)C1CCN(c2cc(-c3ccccc3O)nnc2N)CC1 [Example 91, 2-[6-amino-5-[4-(dimethylamino)-1-piperidyl]pyridazin-3-yl]phenol] | 0.0929 µM
CC(C)(C)OC(=O)N1CCc2cc(CN3CCN(c4cc(-c5ccccc5O)nnc4N)CC3)ccc21 [Example 106, tert-butyl 5-[[4-[3-amino-6-(2-hydroxyphenyl)pyridazin-4-yl]piperazin-1-yl]methyl]indoline-1-carboxylate] | 0.689 µM
CC(C)[C@H](N)C(=O)N1CCN(c2cc(-c3ccccc3O)nnc2N)CC1C (stereo partly drawn) [Example 140, (2S)-2-amino-1-(4-(3-amino-6-(2-hydroxyphenyl)pyridazin-4-yl)-2-methylpiperazin-1-yl)-3-methylbutan-1-one] | 0.0475 µM
CC1CN(c2cc(-c3ccccc3O)nnc2N)CCN1Cc1ccccc1 (centres unmarked) [Example 22, 2-(6-amino-5-(4-benzyl-3-methylpiperazin-1-yl)pyridazin-3-yl)phenol] | 0.0421 µM
Nc1nnc(-c2ccccc2O)cc1C1CCN(S(=O)(=O)c2ccccc2)CC1 [Example 224, 2-(6-amino-5-(1-(phenylsulfonyl)piperidin-4-yl)pyridazin-3-yl)phenol] | 0.0602 µM
Nc1nnc(-c2ccccc2O)cc1N1CC2CC1CN2c1ccccn1 (centres unmarked) [Example 41, 2-(6-amino-5-(5-(pyridin-2-yl)-2,5-diazabicyclo[2.2.1]heptan-2-yl)pyridazin-3-yl)phenol] | 0.0282 µM
Nc1nnc(-c2ccccc2O)cc1N1CCN(c2ccccc2)C(=O)C1 [Example 64, 4-(3-amino-6-(2-hydroxyphenyl)pyridazin-4-yl)-1-phenylpiperazin-2-one] | 0.208 µM
C[C@@H]1CN(c2cc(-c3ccccc3O)nnc2N)CCN1C(=O)[C@@H]1CCCO1 [Example 141, ((R)-4-(3-amino-6-(2-hydroxyphenyl)pyridazin-4-yl)-2-methylpiperazin-1-yl)((S)-tetrahydrofuran-2-yl)methanone] | 0.033 µM
Nc1nnc(-c2ccccc2O)cc1O[C@H]1CCCC[C@@H]1c1ccccc1 [Example 165, 2-(6-amino-5-(((1,2-trans)-2-phenylcyclohexyl)oxy)pyridazin-3-yl)phenol] | 0.977 µM
COCCS(=O)(=O)N1CCN(c2cc(-c3ccccc3O)nnc2N)C[C@H]1C [Example 117, (R)-2-(6-amino-5-(4-((2-methoxyethyl)sulfonyl)-3-methylpiperazin-1-yl)pyridazin-3-yl)phenol] | 0.0535 µM
Nc1nnc(-c2ccccc2O)cc1N1CCC(c2ccccc2)CC1 [Example 18, 2-(6-amino-5-(4-phenylpiperidin-1-yl)pyridazin-3-yl)phenol] | 0.0967 µM
Nc1nnc(-c2ccccc2O)cc1OC1CCCCC1 [Example 179, 2-(6-amino-5-(cyclohexyloxy)pyridazin-3-yl)phenol] | 0.0451 µM
Nc1nnc(-c2ccccc2O)cc1N1CCN(Cc2ccccc2)C(=O)C1 [Example 14, 4-(3-amino-6-(2-hydroxyphenyl)pyridazin-4-yl)-1-benzylpiperazin-2-one] | 0.0735 µM
CS(=O)(=O)N1CCC(c2cc(-c3ccccc3O)nnc2N)CC1 [Example 228, 2-(6-amino-5-(1-(methylsulfonyl)piperidin-4-yl)pyridazin-3-yl)phenol] | 0.0537 µM
